Experimental data as given in patent publication US12594254B2, “Intranasal administration of n-acetylcysteine and uses thereof” (Neuronasal, Inc., priority 2022, dated 2026).

How the values were obtained:
Assay type in all cases: in vivo, human
NAA/creatine ratio = experiment: 1H-MRS change from baseline of regional brain NAA/Creatine ratio after single dose IN NAC; conditions: for increase of NAA/creatine ratio post-dose: dorsolateral prefrontal cortex
Protocol: (§1) Various assays were designed and tested assess the feasibility of IN NAC administration for direct nose-to-brain delivery as shown and described for FIGS. 1-4. Assays include studies in healthy participants using ^1H-MRS assessment of change from baseline in NAC-derived metabolic markers in three brain regions (occipital cortex, striatum, and DLPF), following a single dose of 196 mg to 200 mg IN NAC at 1, 3, and 6 hours.
(§2) Magnetic resonance (MR) spectra of NAC-derived brain metabolites in three brain regions (occipital cortex, striatum, and DLPF) at baseline and 1, 3, and 6 hours following IN NAC were assessed. Percentage change from Baseline of GSH/Creatine and N-Acetylaspartate (NAA)/Creatine in the three regions by treatment group were plotted (FIGS. 3-4).

[1] = Blood PK of total NAC and GSH after a single dose of IN NAC in healthy participants
Protocol: as §1
Concentrations of the targeted metabolites were reported for various time points to assess total NAC and GSH concentrations. Mean (±standard error [SE]) of blood PK data were plotted on linear and semi logarithmic scales (FIGS. 1-2).

[2] = test system: regional brain GSH/creatine ratio; experiment: 1H-MRS change from baseline of regional brain GSH/Creatine ratio after single dose IN NAC
Protocol: as §1, §2

CC(=O)N[C@@H](CS)C(=O)O [NAC, N-acetylcysteine]
increase of NAA/creatine ratio post-dose (NAA/creatine ratio; 196 mg dose group, second of two values, time point unclear (1, 3 and 6 hours named)): 9.0%
increase of NAA/creatine ratio post-dose (NAA/creatine ratio; 196 mg dose group, time point unclear (1, 3 and 6 hours named)): 7.9%
increase of NAA/creatine ratio post-dose (NAA/creatine ratio; 200 mg dose group, 1 hour post-dose): 4.5%
increase of NAA/creatine ratio post-dose (NAA/creatine ratio; 200 mg dose group, 3 hours post-dose): 6.0%
increase of NAA/creatine ratio post-dose (NAA/creatine ratio; 200 mg dose group, 6 hours post-dose): 3.8%
post-dose changes in the NAA/creatine ratio relative to baseline (NAA/creatine ratio; striatum and occipital cortex, both dose groups (200 mg and 196 mg), described as minimal): ≤ 2.5%
post-dose changes in the NAA/creatine ratio (NAA/creatine ratio; striatum, 6 hours, 196 mg cohort): highly variable changes
mean percentage change from Baseline in NAC (blood) ([1]; 196 mg IN NAC, APTAR 5 mL CPS Syringe, 1 hour post-dose): 2881.66%
mean percentage change from Baseline in NAC (blood) ([1]; 196 mg IN NAC, APTAR 5 mL CPS Syringe, 3 hours post-dose): 1158.20%
mean percentage change from Baseline in NAC (blood) ([1]; 196 mg IN NAC, APTAR 5 mL CPS Syringe, 6 hours post-dose): 419.35%
mean percentage change from Baseline in NAC (blood) ([1]; 200 mg IN NAC, Teleflex MAD device, 1 hour post-dose): 2379.60%
mean percentage change from Baseline in NAC (blood) ([1]; 200 mg IN NAC, Teleflex MAD device, 3 hours post-dose): 1117.01%
mean percentage change from Baseline in NAC (blood) ([1]; 200 mg IN NAC, Teleflex MAD device, 6 hours post-dose): 438.17%
effect on regional brain GSH (overall) ([2]; 196 mg IN NAC, APTAR 5 mL CPS Syringe, 1, 3 and 6 hour post-dose timepoints): failed to produce consistent elevation
effect on regional brain GSH (overall) ([2]; 200 mg IN NAC, Teleflex MAD device, 5 participants with analyzable MRS data): time- and region-dependent increase
increase of regional brain GSH/creatine ratio relative to pre-dose baseline ([2]; dorsolateral prefrontal cortex (n=5), 200 mg IN NAC, Teleflex MAD device, 1 hour post-dose): ~17%
increase of regional brain GSH/creatine ratio relative to pre-dose baseline ([2]; dorsolateral prefrontal cortex (n=5), 200 mg IN NAC, Teleflex MAD device, 3 hours post-dose): ~42%
increase of regional brain GSH/creatine ratio relative to pre-dose baseline ([2]; dorsolateral prefrontal cortex (n=5), 200 mg IN NAC, Teleflex MAD device, 6 hours post-dose): ~34%
increase of regional brain GSH/creatine ratio relative to pre-dose baseline ([2]; dorsolateral prefrontal cortex, 196 mg IN NAC, APTAR 5 mL CPS Syringe (n=3), 1 hour): 18%
decrease of regional brain GSH/creatine ratio relative to pre-dose baseline ([2]; dorsolateral prefrontal cortex, 196 mg IN NAC, APTAR 5 mL CPS Syringe (n=3), 3 hours): 71%
increase of regional brain GSH/creatine ratio relative to pre-dose baseline ([2]; dorsolateral prefrontal cortex, 196 mg IN NAC, APTAR 5 mL CPS Syringe (n=3), 6 hours): 4%
increase of regional brain GSH/creatine ratio relative to pre-dose baseline ([2]; occipital cortex (n=5), 200 mg IN NAC, Teleflex MAD device, 1 hour post-dose): ~25%
increase of regional brain GSH/creatine ratio relative to pre-dose baseline ([2]; occipital cortex (n=5), 200 mg IN NAC, Teleflex MAD device, 3 hours post-dose): ~49%
increase of regional brain GSH/creatine ratio relative to pre-dose baseline ([2]; occipital cortex (n=5), 200 mg IN NAC, Teleflex MAD device, 6 hours post-dose): ~21%
decrease of regional brain GSH/creatine ratio relative to pre-dose baseline ([2]; occipital cortex, 196 mg IN NAC, APTAR 5 mL CPS Syringe (n=3), 1 hour): 17%
increase of regional brain GSH/creatine ratio relative to pre-dose baseline ([2]; occipital cortex, 196 mg IN NAC, APTAR 5 mL CPS Syringe (n=3), 3 hours): 2%
increase of regional brain GSH/creatine ratio relative to pre-dose baseline ([2]; occipital cortex, 196 mg IN NAC, APTAR 5 mL CPS Syringe (n=3), 6 hours): 1%
increase of regional brain GSH/creatine ratio relative to pre-dose baseline ([2]; striatum (n=4), 200 mg IN NAC, Teleflex MAD device, 1 hour post-dose): approximately 36%
increase of regional brain GSH/creatine ratio relative to pre-dose baseline ([2]; striatum (n=4), 200 mg IN NAC, Teleflex MAD device, 3 hours post-dose): ~20%
increase of regional brain GSH/creatine ratio relative to pre-dose baseline ([2]; striatum (n=4), 200 mg IN NAC, Teleflex MAD device, 6 hours post-dose): ~14%
increase of regional brain GSH/creatine ratio relative to pre-dose baseline ([2]; striatum, 196 mg IN NAC, APTAR 5 mL CPS Syringe (n=3), 1 hour): 2%
decrease of regional brain GSH/creatine ratio relative to pre-dose baseline ([2]; striatum, 196 mg IN NAC, APTAR 5 mL CPS Syringe (n=3), 3 hours): 11%
change of regional brain GSH/creatine ratio relative to pre-dose baseline ([2]; striatum, 196 mg IN NAC, APTAR 5 mL CPS Syringe (n=3), 6 hours): extreme variability
